Active and inactive are the calls of the source.
Experiments:
[1] = target: T1, Sentrin-specific protease 8 (Homo sapiens, UniProt Q96LD8); format: functional;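 also: luminescence read-out of SENP8 inhibition, dose-response confirmation following an ultra-high-throughput screen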
T1 sequence (Q96LD8 whole entry): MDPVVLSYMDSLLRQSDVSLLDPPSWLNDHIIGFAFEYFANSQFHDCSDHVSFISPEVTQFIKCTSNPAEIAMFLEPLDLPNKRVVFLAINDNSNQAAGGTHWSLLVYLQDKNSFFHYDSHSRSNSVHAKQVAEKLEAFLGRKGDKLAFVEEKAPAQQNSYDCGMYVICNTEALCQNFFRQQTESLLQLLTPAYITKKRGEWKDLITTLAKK

Protein skinhead-1 = target: T2, Protein skinhead-1 (Caenorhabditis elegans, UniProt P34707); format: functional
T2 sequence (P34707 whole entry): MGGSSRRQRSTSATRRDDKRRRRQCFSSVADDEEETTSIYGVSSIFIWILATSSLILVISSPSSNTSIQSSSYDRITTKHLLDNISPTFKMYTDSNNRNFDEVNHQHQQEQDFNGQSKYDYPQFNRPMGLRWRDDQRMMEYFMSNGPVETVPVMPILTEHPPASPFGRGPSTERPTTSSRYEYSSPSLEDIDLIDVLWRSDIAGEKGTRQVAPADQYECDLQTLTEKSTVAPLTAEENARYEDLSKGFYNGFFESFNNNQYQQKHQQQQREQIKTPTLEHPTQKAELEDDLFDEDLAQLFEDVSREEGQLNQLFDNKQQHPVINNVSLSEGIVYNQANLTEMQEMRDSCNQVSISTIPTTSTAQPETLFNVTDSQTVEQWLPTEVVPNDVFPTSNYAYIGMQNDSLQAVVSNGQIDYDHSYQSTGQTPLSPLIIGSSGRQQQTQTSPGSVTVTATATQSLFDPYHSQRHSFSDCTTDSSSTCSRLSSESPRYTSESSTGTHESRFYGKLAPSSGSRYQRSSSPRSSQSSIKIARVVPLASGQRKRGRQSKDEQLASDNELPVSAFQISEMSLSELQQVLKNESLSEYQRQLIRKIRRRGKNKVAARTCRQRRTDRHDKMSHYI

[2] = target: T3, Sentrin-specific protease 6 (Homo sapiens, UniProt Q9GZR1); format: functional;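 also: Luminescence-based dose-response confirmatory assay of SENP6 inhibition, following up an ultra-high-throughput screen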
T3 sequence (Q9GZR1 whole entry): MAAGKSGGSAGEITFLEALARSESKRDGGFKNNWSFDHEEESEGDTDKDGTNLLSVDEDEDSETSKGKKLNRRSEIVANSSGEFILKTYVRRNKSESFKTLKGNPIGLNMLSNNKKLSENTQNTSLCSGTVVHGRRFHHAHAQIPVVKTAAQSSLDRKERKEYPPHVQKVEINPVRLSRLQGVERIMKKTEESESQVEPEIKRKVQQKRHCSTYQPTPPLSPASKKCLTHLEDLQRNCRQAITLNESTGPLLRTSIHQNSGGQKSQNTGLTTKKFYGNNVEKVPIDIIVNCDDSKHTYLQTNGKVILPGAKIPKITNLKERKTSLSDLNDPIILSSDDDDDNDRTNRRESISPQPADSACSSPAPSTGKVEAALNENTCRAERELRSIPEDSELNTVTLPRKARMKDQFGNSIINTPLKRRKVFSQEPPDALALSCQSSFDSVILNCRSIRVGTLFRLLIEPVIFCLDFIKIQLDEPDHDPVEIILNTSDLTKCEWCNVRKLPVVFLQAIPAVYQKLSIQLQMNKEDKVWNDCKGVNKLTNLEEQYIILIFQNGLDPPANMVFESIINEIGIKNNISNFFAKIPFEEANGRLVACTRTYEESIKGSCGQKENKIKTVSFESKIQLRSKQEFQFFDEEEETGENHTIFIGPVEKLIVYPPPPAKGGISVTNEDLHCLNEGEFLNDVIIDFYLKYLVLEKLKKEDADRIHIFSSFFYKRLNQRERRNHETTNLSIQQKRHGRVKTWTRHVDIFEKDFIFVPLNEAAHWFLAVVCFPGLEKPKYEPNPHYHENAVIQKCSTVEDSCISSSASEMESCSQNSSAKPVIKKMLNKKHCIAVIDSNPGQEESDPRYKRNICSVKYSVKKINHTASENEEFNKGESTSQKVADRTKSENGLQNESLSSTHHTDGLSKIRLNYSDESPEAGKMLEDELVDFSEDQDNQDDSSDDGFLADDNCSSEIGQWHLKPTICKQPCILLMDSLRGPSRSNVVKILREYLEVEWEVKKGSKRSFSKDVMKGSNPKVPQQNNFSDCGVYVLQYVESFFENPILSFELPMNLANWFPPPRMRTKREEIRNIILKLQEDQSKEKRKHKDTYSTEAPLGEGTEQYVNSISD

Caspase-3 = target: T4, Caspase-3 (Homo sapiens, UniProt P42574); format: functional;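 also: Dose-response selectivity test against caspase-3 for candidate inhibitors of sentrin-specific proteases (SENPs)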
T4 sequence (P42574 whole entry): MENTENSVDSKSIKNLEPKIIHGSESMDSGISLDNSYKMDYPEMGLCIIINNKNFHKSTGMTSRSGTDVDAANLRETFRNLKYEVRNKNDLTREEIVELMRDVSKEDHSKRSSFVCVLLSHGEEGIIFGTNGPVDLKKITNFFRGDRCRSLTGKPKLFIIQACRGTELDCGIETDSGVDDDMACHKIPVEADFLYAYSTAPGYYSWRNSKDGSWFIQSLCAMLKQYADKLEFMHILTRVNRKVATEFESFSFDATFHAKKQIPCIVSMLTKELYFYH

[3] = target: T5, Sentrin-specific protease 7 (Homo sapiens, UniProt Q9BQF6); format: functional;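 also: Luminescence-based dose-response confirmation of ultra-high-throughput screening hits, measuring inhibition of SENP7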
T5 sequence (Q9BQF6 whole entry): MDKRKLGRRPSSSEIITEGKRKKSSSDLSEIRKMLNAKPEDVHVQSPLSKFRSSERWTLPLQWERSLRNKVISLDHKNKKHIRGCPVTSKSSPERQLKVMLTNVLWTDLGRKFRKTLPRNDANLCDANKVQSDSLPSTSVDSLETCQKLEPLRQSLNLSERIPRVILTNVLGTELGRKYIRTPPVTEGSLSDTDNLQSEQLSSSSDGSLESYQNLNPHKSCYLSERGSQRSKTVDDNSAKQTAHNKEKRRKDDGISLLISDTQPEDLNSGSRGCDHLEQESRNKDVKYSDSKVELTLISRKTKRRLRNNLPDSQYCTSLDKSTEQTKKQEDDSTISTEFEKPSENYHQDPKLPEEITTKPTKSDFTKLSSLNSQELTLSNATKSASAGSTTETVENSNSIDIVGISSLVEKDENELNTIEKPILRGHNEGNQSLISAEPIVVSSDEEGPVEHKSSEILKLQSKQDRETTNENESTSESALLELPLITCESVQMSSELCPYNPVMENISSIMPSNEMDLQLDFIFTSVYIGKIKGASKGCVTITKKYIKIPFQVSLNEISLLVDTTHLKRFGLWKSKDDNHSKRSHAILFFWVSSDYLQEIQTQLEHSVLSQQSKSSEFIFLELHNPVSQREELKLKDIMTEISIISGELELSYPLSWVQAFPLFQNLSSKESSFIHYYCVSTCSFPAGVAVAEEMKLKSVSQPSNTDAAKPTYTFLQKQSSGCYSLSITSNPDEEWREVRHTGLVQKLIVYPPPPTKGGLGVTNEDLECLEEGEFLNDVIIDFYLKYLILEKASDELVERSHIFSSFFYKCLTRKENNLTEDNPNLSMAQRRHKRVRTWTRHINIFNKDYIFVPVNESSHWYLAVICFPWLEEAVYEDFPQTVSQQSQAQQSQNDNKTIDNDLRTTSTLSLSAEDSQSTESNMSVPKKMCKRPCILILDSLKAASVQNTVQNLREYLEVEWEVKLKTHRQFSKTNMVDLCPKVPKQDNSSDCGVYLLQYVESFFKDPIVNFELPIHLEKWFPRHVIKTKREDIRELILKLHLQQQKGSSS

[4] = target: Heat shock protein HSP 90-alpha (Homo sapiens, UniProt P07900); format: functional, organism-based
H9c2 = test: cells; format: functional, cell-based; conditions: Rattus norvegicus, H9c2, Myocardium;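 also: confirmatory concentration-response retest of ultra-high-throughput screening hits for modulation of myocardial damage; cell death induced by hydrogen peroxide oxidative stress; compound pretreatment for 60 min then peroxide exposure for 2 h; potency is for protecting the cells against peroxide damage rather than for killing them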
[5] = target: T6, Apoptotic protease-activating factor 1 (Homo sapiens, UniProt O14727); format: functional
T6 sequence (O14727 whole entry): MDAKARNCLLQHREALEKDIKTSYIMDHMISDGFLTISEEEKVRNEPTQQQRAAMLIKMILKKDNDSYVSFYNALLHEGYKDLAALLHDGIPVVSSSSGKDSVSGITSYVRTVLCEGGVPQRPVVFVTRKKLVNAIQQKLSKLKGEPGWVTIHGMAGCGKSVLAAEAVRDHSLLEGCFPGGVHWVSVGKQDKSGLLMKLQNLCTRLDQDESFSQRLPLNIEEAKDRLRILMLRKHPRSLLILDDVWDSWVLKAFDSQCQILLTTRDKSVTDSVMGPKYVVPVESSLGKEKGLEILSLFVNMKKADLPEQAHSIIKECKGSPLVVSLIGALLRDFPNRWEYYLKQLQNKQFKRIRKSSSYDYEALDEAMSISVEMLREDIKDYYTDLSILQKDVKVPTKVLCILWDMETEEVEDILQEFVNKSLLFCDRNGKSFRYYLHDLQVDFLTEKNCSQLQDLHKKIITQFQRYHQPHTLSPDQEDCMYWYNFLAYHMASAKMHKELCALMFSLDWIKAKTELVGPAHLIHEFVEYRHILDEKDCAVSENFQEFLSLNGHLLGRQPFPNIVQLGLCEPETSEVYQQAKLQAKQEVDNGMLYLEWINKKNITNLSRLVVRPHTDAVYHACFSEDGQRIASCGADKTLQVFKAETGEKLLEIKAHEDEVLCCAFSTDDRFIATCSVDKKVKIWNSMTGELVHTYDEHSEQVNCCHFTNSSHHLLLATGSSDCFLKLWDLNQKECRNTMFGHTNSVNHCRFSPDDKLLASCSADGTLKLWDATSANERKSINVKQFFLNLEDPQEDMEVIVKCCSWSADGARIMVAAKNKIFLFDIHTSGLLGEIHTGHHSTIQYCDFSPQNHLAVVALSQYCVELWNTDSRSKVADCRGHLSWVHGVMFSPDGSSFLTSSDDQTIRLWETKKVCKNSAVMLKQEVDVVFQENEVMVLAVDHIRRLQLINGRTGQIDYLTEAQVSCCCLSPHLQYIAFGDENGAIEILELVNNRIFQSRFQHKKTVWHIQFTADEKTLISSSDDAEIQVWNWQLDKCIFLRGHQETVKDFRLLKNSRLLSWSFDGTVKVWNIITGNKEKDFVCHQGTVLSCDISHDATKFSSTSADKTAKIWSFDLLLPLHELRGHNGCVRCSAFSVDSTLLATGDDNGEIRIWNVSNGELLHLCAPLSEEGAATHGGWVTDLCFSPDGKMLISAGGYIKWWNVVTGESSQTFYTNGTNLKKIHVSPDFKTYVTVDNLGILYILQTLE

[6] = Luminescence Cell-Based Dose Response HTS to Identify Inhibitors of 5'UTR Stem-Loop Driven Prion Protein mRNA Translation in H4 Neuroglioblastoma Cells. [Related pubchem assays: 1827 (Project Summary), 1813 (Primary HTS)]; format: functional
[7] = luciferase reporter signal suppression in cells – H4 neuroglioma cells, luminescence, dose response (AID 1990); format: functional, cell-based
[8] = microbe, parasite or virus in culture; format: functional; conditions: Mycobacterium tuberculosis
[9] = alpha-synuclein stem-loop luciferase translation blockers – H4 neuroglioma cells, luminescence, confirmation (AID 1988); format: functional, cell-based
Vero = test: cells; format: functional; conditions: Chlorocebus sabaeus
[10] = NIH3T3 cell viability loss – ATP luminescence, mouse fibroblasts, counter-screen, dose response (AID 2010); format: functional, cell-based;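 also: cells exposed to compound for about 90 hours before reading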
INS1 = test: INS-1E survival protection against cytokine death – cell-based, luminescence, retest, dose response (AID 449756); format: functional; conditions: Rattus norvegicus;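 also: cell death triggered by IL-1 beta plus TNF-alpha plus IFN-gamma mixture; protective hits raise ATP signal compared with cytokine alone wells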
cells [11] = format: functional, cell-based
cells [12] = format: functional, cell-based; remark: listed apart in the source
[13] = Trypanosoma cruzi growth suppression in host cells – NIH3T3 host cells, beta-gal luminescence, confirmation (AID 2044); format: functional, cell-based;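 also: intracellular parasites grown in NIH/3T3 mouse fibroblasts as host cells; luminescent beta-galactosidase reporter signal from transgenic T. cruzi replicating inside host cells; inhibitors lower the luminescence signal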

Row | Structure (SMILES) | IC50 [1] | IC50 [2] | IC50 (Caspase-3) | IC50 [3] | IC50 (H9c2) | also measured
1 | CCCOc1ccc(C(=O)Nc2ccc(Cl)cn2)cc1 | 9.81 µM (active) | 16.1 µM (active) | 7.83 µM (active) | 3.22 µM (active) | – | IC50 (Protein skinhead-1): 100 µM (inactive)
2 | O=C1/C(=C\c2ccc(O)c(O)c2)SC(=S)N1Cc1ccccc1 | 10.7 µM (active) | 11.5 µM (active) | 67.5 µM (active) | 13 µM (active) | – | AC50 [4]: 3.11 µM (active)
3 | O=C(NCCN1CCN(c2ccccc2F)CC1)c1cccn2c(=O)c3ccccc3nc12 | – | – | – | – | > 79 µM (inactive) | –
4 | NC(=O)COc1ccc2oc(=O)cc(-c3cc4ccccc4o3)c2c1 | – | – | – | – | > 79 µM (inactive) | –
5 | COc1ccc(-c2cc3ccc(OC)cc3cn2)cc1 | > 100 µM (inactive) | > 100 µM (inactive) | 15.8 µM (active) | 1.69 µM (active) | – | –
6 | O=C(c1cc(O)nc2ccccc12)N1CCN(S(=O)(=O)c2ccc3ccccc3c2)CC1 | – | – | – | – | > 79 µM (inactive) | –
7 | CN(Cc1ccc(F)cc1)C(=O)CNC(=O)c1cccs1 | – | – | – | – | – | IC50 [5]: > 100 µM (inactive)
8 | O=C(N/N=C(\c1ccccc1)c1ccccn1)c1ccccc1Cl | – | – | – | – | – | EC50 [6]: 4.49 µM (active); EC50 [7]: 2.03 µM (active); CC50 [8]: 5.75 µM (active); EC50 [9]: 0.472 µM (active); CC50 (Vero): 6.17 µM (active); EC50 [10]: 5.45 µM (active); AC50 (INS1): 1.27 µM (active); EC50 (cells [11]): > 350 µM (not active); EC50 (cells [12]): 12.1 µM (active); EC50 [13]: 0.852 µM (active)
